In patent US4613618A, “Method for treating disorders of lipid metabolism using benzene sulfonamides” (Choay S.A., priority 1981, dated 1986):
Where two headings read alike, the source gives them in different places.

Legend:
[1] = test system: hyperlipidemia caused by the administration of TRITON; experiment: Triton test: lipid regulating activity in hyperlipidemia caused by TRITON W. R.; type: in vivo, WISTAR male rats; conditions: Rattus norvegicus, po, 250 mg/kg orally, 6 hours and/or 24 hours
Description: In a first series of experiments, products were tested on a hyperlipidemia caused by the administration of TRITON according to the following procedure.
The tests were carried out on groups of five WISTAR male rats whose weight varied from 150 to 175 g.
The tested products were administered, orally in the form of a 3% aqueous solution of tragacanth gum in the ratio of 1 ml per 100 g of body weight, in an amount corresponding to 250 mg/kg.
To carry out these tests, a hyperlipidemia was caused in the animals, by means of the product marketed by the ROHM and HAAS Company under the name TRITON W. R.
On this hyperlipidemia the effects obtained by the administration of the active substances according to the invention, are observed.
The tests were carried out as follows:
the rats were fasted for 18 hours, then the TRITON W. R. was administered intravenously in 10% aqueous solution in the proportion of 200 mg/kg;
simultaneously 250 mg/kg of the product under test was administered orally;
6 hours and/or 24 hours later, blood assays were carried out conventionally.
to the total cholesterol, […]

[2] = Acute toxicity, intraperitoneal, mice; conditions: mouse, in vivo, ip, intraperitoneally, read-out: lethal dose 50
Description: The acute toxicity is expressed by the lethal dose 50, that is to say the dose resulting in the death of 50% of the animals.
This study was carried out on mice, to which the products under test were administered intraperitoneally.
It was established as follows, for the following substances: […]

[3] = test system: atherosclerosis inducing diet (cholesterol, cholic acid, vitamine D2); experiment: Atherosclerosis inducing diet: biochemical exams; type: in vivo, Wistar female rats; design: CHOLESTEROL T, % reduction with respect to the control diet / CHOLESTEROL HDL, % with respect to the control diet / CHOLESTEROL LDL, % reduction with respect to the control diet / TRIGLYCERIDES, % reduction with respect to the control diet: concentration or dose not given beside the values
Description: (§1) In a second experimental series, tha activity of certain products according to the invention were tested on animals which had received an atherosclerosis inducing diet for a long period.
(§2) The test was carried out on Wistar female rats, of weight about 160-180 g.
(§3) The animals received food coming from the National Nutrition plant of Villemoisson-sur-Orge, France, and denoted by the reference UAR AO3, enriched in cholesterol (0.5%) and in cholic acid (0.5%).
(§4) After 15 days of the atherosclerosis inducing diet and whilst maintaining the animals on an atherosclerosis inducing diet, they were given orally for 4 days 250.000 iu/kg of vitamine D2 marketed under the name Sterogyl 25H, in solution in olive oil.
(§5) Then the products under study were administered for 4 weeks, from the end of the administration of the lesion-inducing agent.
At the end of the study, biochemical examinations were carried out on all the animals [total cholesterol, high density lipoprotein (HDL) and cholesterol low density lipoprotein (LDL), and triglycerides].
(§6) Then the pecentage reduction with respect to the diet controls and the score were calculated, that is to say the ratio of the intensity of the activity of the product tested with respect to that of the activity of clofibrate, reckoned as 1.
Table IX gives the detailed results of the biochemical examination:
(a) in % reduction with respect to the control die;
(b) as score, with respect to the reference product, clofibrate, the latter being counted as 1.

aorta = experiment: Atherosclerosis inducing diet: microscopic observations (aorta, histology); type: in vivo, Wistar female rats; design: HISTOLOGICAL QUOTATION, percentage reduction with respect to the diet controls / NUMBER OF ATHEROSCLEROTIC AREAS, percentage reduction with respect to the diet controls: concentration or dose not given beside the values
Description: as §1, §2, §3, §4, §5
(§7) At the end of the study, all the animals still alive were sacrificed, and various organs were removed, particularly the aorta, for histological study of the latter. Two criteria were examined: the number of atherosclerosis areas and the severity of the lesions.
Calculation of the figures was carried out in the following manner:
as regards the severity of the lesions, a quotation ranging from 0 for absence of a lesion to 5+ for the severest lesions was made, and this for each type of alteration concerned (increase of interlamellar spaces, interruption of elastic laminae, thickening of the elastic laminae, calcium deposition, mucopolysaccharide deposition); then all of the results per batch of animals were added;
as regards the number of atherosclerosis areas, by counting the latter and adding all the figures obtained per batch of animals.
as §6
Table XI gives the microscopic results with histological quotation as regards the severity of the lesions, and the number of atherosclerotic areas.

atherosclerosis lesions = experiment: Atherosclerosis inducing diet: macroscopic exams (affected animals); type: in vivo, Wistar female rats
Description: as §1, §2, §3, §4, §5, §7, §6
Table X gives the results of macroscopic examinations:
(a) in % decrease in animals afflicted with lesions;
(b) as score with respect to the reference clofibrate, of which the score was counted as 1.

[4] = read-out: Total cholesterol, % of decrease with respect to Triton control
[5] = read-out: Total lipids, % of decrease with respect to Triton control
[6] = read-out: Triglycerides, % of decrease with respect to Triton control

Question: Which change in vivo at 250 mg/kg [1, 4] does the source give for `Nc1ccc(S(=O)(=O)NCCCCCC(=O)O)cc1` [compound 665] here?
Answer: Its change in vivo at 250 mg/kg is -15%.

Question: And the change in vivo at 250 mg/kg [1, 5]?
Answer: The change in vivo at 250 mg/kg was -30%.

Question: What about the change in vivo at 250 mg/kg [1, 6] of the same compound?
Answer: The change in vivo at 250 mg/kg was -20%.

Question: What about the LD50 [2] of the same compound?
Answer: Its LD50 is greater than 6400 mg/kg.

Question: With `COc1cc([N+](=O)[O-])c(Cl)cc1S(=O)(=O)NCCCCCC(=O)O` [compound 362] as the compound, how does the change in vivo at 250 mg/kg [1, 4] read?
Answer: Its change in vivo at 250 mg/kg is -10%.

Question: What about the change in vivo at 250 mg/kg [1, 5] of the same compound?
Answer: The change in vivo at 250 mg/kg was -39%.

Question: And the change in vivo at 250 mg/kg [1, 6]?
Answer: The change in vivo at 250 mg/kg was -88%.

Question: And the LD50 [2]?
Answer: Its LD50 is 1760 mg/kg.

Question: For `CCOC(=O)C(C)(C)Oc1ccc(Cl)cc1` [CLOFIBRATE, clofibrate, reference compound], which “TRIGLYCERIDES, % reduction with respect to the control diet” value ([3]; 4 weeks administration) is on record?
Answer: Its value is -24,14%.

Question: What about the “CHOLESTEROL HDL, % with respect to the control diet” value ([3]; HDL, 4 weeks administration) of the same compound?
Answer: Its value is “+104,17%”.

Question: And the “CHOLESTEROL LDL, % reduction with respect to the control diet” value ([3]; LDL, 4 weeks administration)?
Answer: Its value is -55,37%.

Question: And the “CHOLESTEROL HDL, Score with respect to clofibrate” value ([3]; clofibrate counted as 1)?
Answer: Its value is 1,00.

Question: And the “CHOLESTEROL LDL, Score with respect to clofibrate” value ([3]; clofibrate counted as 1)?
Answer: Its value is 1,00.

Question: What about the “CHOLESTEROL T, Score with respect to clofibrate” value ([3]; clofibrate counted as 1) of the same compound?
Answer: The value was 1,00.

Question: And the “TRIGLYCERIDES, Score with respect to clofibrate” value ([3]; clofibrate counted as 1)?
Answer: The value was 1,00.

Question: And the “CHOLESTEROL T, % reduction with respect to the control diet” value ([3]; total cholesterol, 4 weeks administration)?
Answer: The value was -48,75%.

Question: What about the “NUMBER OF ATHEROSCLEROTIC AREAS, percentage reduction with respect to the diet controls” value (aorta) of the same compound?
Answer: The value was 54,93%.

Question: And the “NUMBER OF ATHEROSCLEROTIC AREAS” value (aorta; TEM-diet 160)?
Answer: Its value is 72%.

Question: What about the “HISTOLOGICAL QUOTATION, score with respect to clofibrate” value (aorta; clofibrate counted as 1) of the same compound?
Answer: The value was 1,00.

Question: And the “NUMBER OF ATHEROSCLEROTIC AREAS, score with respect to clofibrate” value (aorta; clofibrate counted as 1)?
Answer: Its value is 1,00.

Question: What about the “HISTOLOGICAL QUOTATION, percentage reduction with respect to the diet controls” value (aorta; severity of the lesions) of the same compound?
Answer: Its value is 62,83%.

Question: What about the “HISTOLOGICAL QUOTATION” value (aorta; severity of the lesions, TEM-diet 132) of the same compound?
Answer: Its value is 49%.

Question: What about the “% decrease in animals afflicted with lesions” value (atherosclerosis lesions) of the same compound?
Answer: The value was 18,18%.

Question: What about the “Score with respect to the reference clofibrate (animals afflicted with lesions)” value (atherosclerosis lesions; clofibrate counted as 1) of the same compound?
Answer: Its value is 1,00.

Question: What about the “AFFECTED ANIMALS %” value (atherosclerosis lesions; macroscopic exams, TEM-diet 100) of the same compound?
Answer: The value was 81,82%.

Question: What does the source list for `CCOC(=O)CCCCCCCCCCNS(=O)(=O)c1ccc(OC)cc1` [compound 729]?
Answer: change in vivo at 250 mg/kg [1, 6]: -17%; LD50 [2]: > 6400 mg/kg

Question: For `CCOC(=O)CCCCCCCCCCNS(=O)(=O)c1cc(Cl)c([N+](=O)[O-])cc1OC` [compound 502], which change in vivo at 250 mg/kg [1, 4] is on record?
Answer: The change in vivo at 250 mg/kg was -16%.

Question: What about the change in vivo at 250 mg/kg [1, 5] of the same compound?
Answer: The change in vivo at 250 mg/kg was -45%.

Question: What about the change in vivo at 250 mg/kg [1, 6] of the same compound?
Answer: The change in vivo at 250 mg/kg was -32%.

Question: And the LD50 [2]?
Answer: Its LD50 is 3070 mg/kg.
